According to patent publication US8309730B2, “Nonsteroidal compounds useful as modulators of glucocorticoid receptor AP-1 and/or NF-kappab acitivity and use thereof” (Bristol-Myers Squibb Company, priority 2007, dated 2012):

How the values were obtained:
[1] = biological target: T1, human glucocorticoid receptor (Homo sapiens, UniProt P04150); test: Glucocorticoid Receptor Binding Assay (I), fluorescence polarization competitor kit; conditions: purified human recombinant full-length GR, Fluormone GS Red, 2 h room temperature
T1 construct: purified human recombinant full-length glucocorticoid receptor (2 nM); purchased Invitrogen Part #2893
T1 sequence (P04150 1-777): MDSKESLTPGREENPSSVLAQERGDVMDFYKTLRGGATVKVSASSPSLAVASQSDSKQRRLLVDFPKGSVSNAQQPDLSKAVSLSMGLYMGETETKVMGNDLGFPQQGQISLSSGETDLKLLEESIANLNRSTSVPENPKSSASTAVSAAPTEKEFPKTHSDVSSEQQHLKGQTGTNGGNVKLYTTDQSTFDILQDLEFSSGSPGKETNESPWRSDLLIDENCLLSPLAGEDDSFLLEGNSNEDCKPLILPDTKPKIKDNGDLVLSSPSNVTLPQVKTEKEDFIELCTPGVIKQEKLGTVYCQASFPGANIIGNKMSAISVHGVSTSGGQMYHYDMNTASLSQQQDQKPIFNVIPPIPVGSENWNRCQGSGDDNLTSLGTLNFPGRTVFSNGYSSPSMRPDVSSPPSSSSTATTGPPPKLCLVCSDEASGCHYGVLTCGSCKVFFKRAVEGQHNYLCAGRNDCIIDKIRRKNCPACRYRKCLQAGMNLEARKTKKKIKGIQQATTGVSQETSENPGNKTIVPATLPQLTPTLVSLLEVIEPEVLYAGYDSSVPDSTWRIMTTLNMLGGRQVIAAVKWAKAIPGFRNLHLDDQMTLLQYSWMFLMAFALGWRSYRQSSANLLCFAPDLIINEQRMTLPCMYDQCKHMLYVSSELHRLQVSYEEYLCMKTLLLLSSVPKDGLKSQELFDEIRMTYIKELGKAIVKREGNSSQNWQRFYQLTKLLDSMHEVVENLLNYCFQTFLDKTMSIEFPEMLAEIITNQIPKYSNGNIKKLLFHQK
Procedure: Briefly, purified human recombinant full-length glucocorticoid receptor (2 nM) was mixed with fluorescently labeled glucocorticoid (1 nM Fluormone GS Red) in the presence or absence of test compound. After two hours incubation at room temperature in the dark, the fluorescence polarization (FP) of the sample was measured. […] Test compounds were analyzed in the concentration range from 8.5E-05 μM to 5 μM.

[2] = test system: AP-1 induced transcriptional activity; test: Cellular Transrepressional Assay (AP-1 luciferase reporter in A549 cells); type: cell-based; conditions: Homo sapiens, A549 cells stably transfected with pAP-1-Luc, 10 ng/ml PMA, 7 hours; for Emax: maximum inhibition, read-out: AP-1 Max % inh (Cellular Transrepression Assay); for EC50: read-out: AP-1 EC50, nM (Cellular Transrepression Assay)
Procedure: To measure the ability of test molecules to inhibit AP-1 induced transcriptional activity we utilized an A549 cell which was stably transfected with a plasmid containing 7×AP-1 DNA binding sites (pAP-1-Luc plasmid, Stratagene Co. La Jolla, Calif.) followed by the gene for luciferase. Cells were activated with 10 ng/ml of phorbol myristic acid (PMA) plus or minus test molecules for 7 hours. After 7 hours a luciferase reagent was added to measure luciferase enzymatic activity in the cell. After a 10 minute incubation of luciferase reagent with cells, luminescence was measured in a TopCount luminescence counter. Repression of AP-1 activity was calculated as the percentage decrease in the signal induced by PMA alone. Test molecules were analyzed in the concentration range from 0.1 nM to 40 μM. EC50 values were determined by using standard curve fitting methods such as Excel fit (Microsoft Co.).

SMILES | Ki [1] [nM] | EC50 [2] [nM] | Emax [2] [%]
C[C@]12Cn3cnc(-c4ccccc4)c3C=C1CCC[C@@H]2[C@H](O)c1ccccc1 (racemic) [Example 12] | 86.3 |  | 
C[C@]12Cn3cnc(-c4ccccc4)c3C=C1CCC[C@@H]2[C@](C)(O)c1csc2ccccc12 (racemic) [Example 15] |  | 145 | 42.7
COc1ccc([C@H](O)[C@H]2CCCC3=Cc4c(-c5ccccc5)ncn4C[C@@]32C)cc1 (racemic) [Example 16] | 90.1 |  | 
COc1ccc([C@@H](O)[C@H]2CCCC3=Cc4c(-c5ccccc5)ncn4C[C@@]32C)cc1 (racemic) [Example 17] | 93.4 |  | 
C=CC[C@H](O)[C@H]1CCCC2=Cc3c(-c4ccccc4)ncn3C[C@@]21C (racemic) [Example 18] | 26.9 |  | 
C=CC[C@@H](O)[C@H]1CCCC2=Cc3c(-c4ccccc4)ncn3C[C@@]21C (racemic) [Example 19] | 22.3 |  | 
C[C@]12Cn3cnc(-c4ccccc4)c3C=C1CCC[C@@H]2[C@](C)(O)c1csc2ccccc12 (single isomer, unassigned) [Example 31] |  | 181 | 41.2
C[C@]12Cn3cnc(-c4ccc(F)cc4)c3C=C1CCC[C@@H]2[C@](C)(O)c1cccs1 [Example 1, (S)-1-((5aR,6S)-1-(4-Fluorophenyl)-5a-methyl-5,5a,6,7,8,9-hexahydroimidazo[1,5-b]isoquinolin-6-yl)-1-(thiophen-2-yl)ethanol] |  | 21.4 | 38.1
CN(C)C(=O)c1ccc([C@@](C)(O)[C@H]2CCCC3=Cc4c(-c5ccc(F)cc5)ncn4C[C@@]32C)s1 [Example 3, 5-((S)-1-((5aR,6S)-1-(4-Fluorophenyl)-5a-methyl-5,5a,6,7,8,9-hexahydroimidazo[1,5-b]isoquinolin-6-yl)-1-hydroxyethyl)-N,N-dimethylthiophene-2-carboxamide] |  | 267 | 29.5
C[C@]12Cn3cnc(-c4ccc(F)cc4)c3C=C1CCC[C@@H]2CCNc1nncs1 [Example 5, N-(2-((5aR,6R)-1-(4-Fluorophenyl)-5a-methyl-5,5a,6,7,8,9-hexahydroimidazo[1,5-b]isoquinolin-6-yl)ethyl)-1,3,4-thiadiazol-2-amine] |  | 98 | 22.6
CC(C)(O)c1cccc([C@@](C)(O)[C@H]2CCCC3=Cc4c(-c5ccc(F)cc5)ncn4C[C@@]32C)c1 [Example 9, 2-(3-((S)-1-((5aR,6S)-1-(4-Fluorophenyl)-5a-methyl-5,5a,6,7,8,9-hexahydroimidazo[1,5-b]isoquinolin-6-yl)-1-hydroxyethyl)phenyl)propan-2-ol] |  | 144 | 34.3
C[C@]12Cn3cnc(-c4ccc(F)cc4)c3C=C1CCC[C@@H]2[C@](C)(O)C(F)(F)F [Example 10, (S)-1,1,1-Trifluoro-2-((5aR,6S)-1-(4-fluorophenyl)-5a-methyl-5,5a,6,7,8,9-hexahydroimidazo[1,5-b]isoquinolin-6-yl)propan-2-ol] |  | 30.9 | 31.3
C=CC[C@@](C)(O)[C@H]1CCCC2=Cc3c(-c4ccc(F)cc4)ncn3C[C@@]21C [Example 57] |  | 56.6 | 55.9
C[C@]12Cn3cnc(-c4ccc(F)cc4)c3C=C1CCC[C@@H]2[C@](C)(O)C1CC1 [Example 58] |  | 36.8 | 35.8
Cc1ccc([C@@](C)(O)[C@H]2CCCC3=Cc4c(-c5ccc(F)cc5)ncn4C[C@@]32C)s1 [Example 60] |  | 31.3 | 48.3
Cc1ccsc1[C@@](C)(O)[C@H]1CCCC2=Cc3c(-c4ccc(F)cc4)ncn3C[C@@]21C [Example 61] |  | 11.6 | 58.8
CC(C)(C)C[C@@](C)(O)[C@H]1CCCC2=Cc3c(-c4ccc(F)cc4)ncn3C[C@@]21C [Example 63] |  | 31.5 | 47.5
C[C@]12Cn3cnc(-c4ccc(F)cc4)c3C=C1CCC[C@@H]2[C@](C)(O)C1CCCCC1 [Example 67] |  | 1.99 | 44.3
CCCC[C@@](C)(O)[C@H]1CCCC2=Cc3c(-c4ccc(F)cc4)ncn3C[C@@]21C [Example 68] |  | 33.9 | 40.8
CCc1ccccc1[C@@](C)(O)[C@H]1CCCC2=Cc3c(-c4ccc(F)cc4)ncn3C[C@@]21C [Example 75] |  | 41.6 | 47.1
COC(=O)c1ccc([C@@](C)(O)[C@H]2CCCC3=Cc4c(-c5ccc(F)cc5)ncn4C[C@@]32C)s1 [Example 92] |  | 24.7 | 47.4
C[C@]12Cn3cnc(-c4ccc(F)cc4)c3C=C1CCC[C@@H]2[C@](C)(O)C1CCOCC1 [Example 96] |  | 56.5 | 42
C[C@]12Cn3cnc(-c4ccc(F)cc4)c3C=C1CCC[C@@H]2[C@](C)(O)c1ccc(C(=O)O)s1 [Example 99] |  | 472 | 43.9
CNC(=O)c1ccc([C@@](C)(O)[C@H]2CCCC3=Cc4c(-c5ccc(F)cc5)ncn4C[C@@]32C)s1 [Example 100] |  | 573 | 30.7
CC1(C)COC2(CCCC3=Cc4c(-c5ccc(F)cc5)ncn4CC32C)OC1 (stereo not drawn) [Example 104, 1′-(4-Fluorophenyl)-5,5,5a′-trimethyl-5a′,7′,8′,9′-tetrahydro-5′H-spiro[[1,3]dioxane-2,6′-imidazo[1,5-b]isoquinoline]] |  | 877 | 32.4

Now from value to compound, other results behind:

Ki [1] [nM] | EC50 [2] [nM] | SMILES | Emax [2] [%]
 | 236 | C[S+]([O-])c1cccc([C@@](C)(O)[C@H]2CCCC3=Cc4c(-c5ccc(F)cc5)ncn4C[C@@]32C)c1 (stereo partly drawn) [Example 8b, (1S)-1-((5aR,6S)-1-(4-fluorophenyl)-5a-methyl-5,5a,6,7,8,9-hexahydroimidazo[1,5-b]isoquinolin-6-yl)-1-(3-(methylsulfinyl)phenyl)ethanol] | 40.7
 | 11.9 | C[C@]12Cn3cnc(-c4ccc(F)cc4)c3C=C1CCC[C@@H]2[C@](C)(O)c1ccc(F)cc1 [Example 48] | 35.6
 | 63.2 | C[C@]12Cn3cnc(-c4ccc(F)cc4)c3C=C1CCC[C@@H]2[C@](C)(O)c1ccc(Cl)cc1 [Example 53] | 44.6
 | 4.67 | C[C@]12Cn3cnc(-c4ccc(F)cc4)c3C=C1CCC[C@@H]2[C@](C)(O)c1ccsc1 [Example 54] | 42.7
 | 84.2 | C[C@]12Cn3cnc(-c4ccc(F)cc4)c3C=C1CCC[C@@H]2[C@](C)(O)Cc1ccc(F)cc1 [Example 55] | 53.7
 | 19.3 | C[C@]12Cn3cnc(-c4ccc(F)cc4)c3C=C1CCC[C@@H]2[C@](C)(O)c1ccc(F)c(Cl)c1 [Example 56] | 39.6
 | 5.48 | C[C@]12Cn3cnc(-c4ccc(F)cc4)c3C=C1CCC[C@@H]2[C@](C)(O)c1ccc(Cl)s1 [Example 62] | 61.2
 | 4.26 | Cc1ccc([C@@](C)(O)[C@H]2CCCC3=Cc4c(-c5ccc(F)cc5)ncn4C[C@@]32C)cc1 [Example 64] | 41.9
 | 9.75 | Cc1cccc([C@@](C)(O)[C@H]2CCCC3=Cc4c(-c5ccc(F)cc5)ncn4C[C@@]32C)c1 [Example 65] | 46.7
 | 4.6 | Cc1ccccc1[C@@](C)(O)[C@H]1CCCC2=Cc3c(-c4ccc(F)cc4)ncn3C[C@@]21C [Example 66] | 42.1
 | 3.02 | C[C@]12Cn3cnc(-c4ccc(F)cc4)c3C=C1CCC[C@@H]2[C@](C)(O)c1ccccc1 [Example 71] | 32.5
 | 14.3 | Cc1ccc([C@@](C)(O)[C@H]2CCCC3=Cc4c(-c5ccc(F)cc5)ncn4C[C@@]32C)cc1F [Example 74] | 34.5
 | 19.2 | C[C@]12Cn3cnc(-c4ccc(F)cc4)c3C=C1CCC[C@@H]2[C@](C)(O)c1cccc(C#N)c1 [Example 83] | 35.6
 | 20.8 | CSc1cccc([C@@](C)(O)[C@H]2CCCC3=Cc4c(-c5ccc(F)cc5)ncn4C[C@@]32C)c1 [Example 89] | 45.3
 | 95 | COc1cccc([C@@](C)(O)[C@H]2CCCC3=Cc4c(-c5ccc(F)cc5)ncn4C[C@@]32C)c1 [Example 97] | 39.6
